Experimental data taken from ChEMBL document CHEMBL3351465, “Discovery of functionalized bisimidazoles bearing cyclic aliphatic-phenyl motifs as HCV NS5A inhibitors” (Bioorg Med Chem Lett, 2014).
Values after ≈ are worked out from the molar mass of the structure shown.

Assays:
[1] = AUClast in Sprague-Dawley rat at 2 mg/kg, iv; assay type: ADME, organism-based; design: time 0 - last, dose 2 mg/kg, route intravenous; settings: plasma
[2] = AUClast in Sprague-Dawley rat at 10 mg/kg, po; assay type: ADME, organism-based; design: time 0 - last, dose 10 mg/kg, route oral; settings: plasma
[3] = Half life in Sprague-Dawley rat at 2 mg/kg, iv; assay type: ADME, organism-based; design: dose 2 mg/kg, route intravenous; settings: in vivo
[4] = Inhibition of NS5A in HCV genotype-1a infected in human HuH7 cells by luciferase reporter gene assay; assay type: cell-based, Hepatitis C virus subtype 1a; settings: Hepatitis C virus, Huh-7
[5] = Tmax in Sprague-Dawley rat at 10 mg/kg, po; assay type: ADME, organism-based; design: dose 10 mg/kg, route oral; settings: in vivo
[6] = Clearance in Sprague-Dawley rat at 2 mg/kg, iv; assay type: ADME, organism-based; design: dose 2 mg/kg, route intravenous; settings: in vivo
[7] = Volume of distribution at steady state in Sprague-Dawley rat at 2 mg/kg, iv; assay type: ADME, organism-based; design: dose 2 mg/kg, route intravenous; settings: in vivo, read-out: Vdss
[8] = Drug uptake in Sprague-Dawley rat liver at 10 mg/kg, po after 4 hrs; assay type: ADME, organism-based; design: dose 10 mg/kg, route oral; settings: read-out: Drug uptake
[9] = Cmax in Sprague-Dawley rat at 10 mg/kg, po; assay type: ADME, organism-based; design: dose 10 mg/kg, route oral; settings: in vivo
[10] = Oral bioavailability in Sprague-Dawley rat at 10 mg/kg; assay type: ADME, organism-based; settings: in vivo
[11] = Inhibition of NS5A in HCV genotype-1b infected in human HuH7 cells by luciferase reporter gene assay; assay type: cell-based, Hepatitis C virus subtype 1b; settings: Hepatitis C virus, Huh-7
[12] = Plasma concentration in Sprague-Dawley rat at 10 mg/kg, po after 4 hrs; assay type: ADME, organism-based; design: dose 10 mg/kg, route oral
[13] = Solubility of the compound at pH 7.4 by UV detection method; assay type: physicochemical; settings: buffer
[14] = Tmax in Sprague-Dawley rat at 5 mg/kg, po; assay type: ADME, organism-based; design: dose 5 mg/kg, route oral; settings: in vivo
[15] = AUClast in Sprague-Dawley rat at 5 mg/kg, po; assay type: ADME, organism-based; design: time 0 - last, dose 5 mg/kg, route oral; settings: plasma
[16] = Drug uptake in Sprague-Dawley rat liver at 5 mg/kg, po after 4 hrs; assay type: ADME, organism-based; design: dose 5 mg/kg, route oral; settings: read-out: Drug uptake
[17] = Cmax in Sprague-Dawley rat at 5 mg/kg, po; assay type: ADME, organism-based; design: dose 5 mg/kg, route oral; settings: in vivo
[18] = Clearance in Sprague-Dawley rat at 1 mg/kg, iv; assay type: ADME, organism-based; design: dose 1 mg/kg, route intravenous; settings: in vivo
[19] = Plasma concentration in Sprague-Dawley rat […] at 5 mg/kg, po after 4 hrs; assay type: ADME, organism-based; design: dose 5 mg/kg, route oral
[20] = Half life in Sprague-Dawley rat at 1 mg/kg, iv; assay type: ADME, organism-based; design: dose 1 mg/kg, route intravenous; settings: in vivo
[21] = Volume of distribution at steady state in Sprague-Dawley rat at 1 mg/kg, iv; assay type: ADME, organism-based; design: dose 1 mg/kg, route intravenous; settings: in vivo, read-out: Vdss
[22] = Oral bioavailability in Sprague-Dawley rat at 5 mg/kg; assay type: ADME, organism-based; settings: in vivo
[23] = AUClast in Sprague-Dawley rat at 1 mg/kg, iv; assay type: ADME, organism-based; design: time 0 - last, dose 1 mg/kg, route intravenous; settings: plasma

## COC(=O)N[C@@H](C(=O)N1CCC[C@H]1c1ncc(-c2ccc(N3CCC(c4cnc([C@@H]5CCCN5C(=O)[C@H](NC(=O)OC)c5ccccc5)[nH]4)CC3)c(F)c2)[nH]1)c1ccccc1
[1]
  AUC(0-t): 2060 ng·h/mL
[2]
  AUC(0-t): 109 ng·h/mL
[3]
  half-life: 1.9 h
[4]
  EC50: 38 nM
[5]
  Tmax: 0.67 h
[6]
  clearance: 17.7 mL/min/kg
[7]
  Vd: 1.39 L/kg
[8]
  concentration at 4 h: 4 ng/mL
[9]
  Cmax: 41.5 ng/mL
[10]
  bioavailability: 1.2%
[11]
  EC50: 0.095 nM
[12]
  concentration at 4 h: 8.4 ng/mL

## COC(=O)N[C@@H](C(=O)N1CCC[C@H]1c1ncc(-c2cc(F)c(N3CCC(c4cnc([C@@H]5CCCN5C(=O)[C@H](NC(=O)OC)c5ccccc5)[nH]4)CC3)c(F)c2)[nH]1)c1ccccc1
[4]
  EC50: 14 nM
[11]
  EC50: 0.033 nM

## COC(=O)N[C@H](C(=O)N1CCC[C@H]1c1ncc(-c2cc(F)c(N3CCC(c4cnc([C@@H]5CCCN5C(=O)[C@@H](NC(=O)OC)C(C)C)[nH]4)CC3)c(F)c2)[nH]1)C(C)C
[4]
  EC50: 3.8 nM
[13]
  solubility: 87.5 µg/mL (≈ 112 µM)
[11]
  EC50: 0.054 nM

## COC(=O)N[C@@H](C(=O)N1CCC[C@H]1c1ncc(-c2cc(F)c(N3CCC(c4cnc([C@@H]5CCCN5C(=O)[C@H](NC(=O)OC)C(C)C)[nH]4)CC3)c(F)c2)[nH]1)C(C)C
[4]
  EC50: > 100 nM
[11]
  EC50: > 3.7 nM

## COC(=O)N[C@H](C(=O)N1CCC[C@H]1c1ncc(-c2cc(F)c(N3CCC(C)(c4cnc([C@@H]5CCCN5C(=O)[C@@H](NC(=O)OC)C(C)C)[nH]4)CC3)c(F)c2)[nH]1)C(C)C
[4]
  EC50: > 100 nM
[11]
  EC50: 0.081 nM

## COC(=O)N[C@@H](C(=O)N1CCC[C@H]1c1ncc(-c2ccc([C@H]3CC[C@H](c4cnc([C@@H]5CCCN5C(=O)[C@H](NC(=O)OC)c5ccccc5)[nH]4)CC3)cc2)[nH]1)c1ccccc1
[4]
  EC50: 5.2 nM
[11]
  EC50: 0.061 nM

## COC(=O)N[C@H](C(=O)N1CCC[C@H]1c1ncc(-c2ccc([C@H]3CC[C@H](c4cnc([C@@H]5CCCN5C(=O)[C@@H](NC(=O)OC)C(C)C)[nH]4)CC3)cc2)[nH]1)C(C)C
[14]
  Tmax: 0.67 h
[15]
  AUC(0-t): 1540 ng·h/mL
[16]
  concentration at 4 h: 665 ng/mL
[17]
  Cmax: 554 ng/mL
[18]
  clearance: 23.7 mL/min/kg
[4]
  EC50: 2 nM
[19]
  concentration at 4 h: 108 ng/mL
[20]
  half-life: 1.33 h
[21]
  Vd: 1.53 L/kg
[22]
  bioavailability: 44.2%
[13]
  solubility: 66.3 µg/mL (≈ 89 µM)
[23]
  AUC(0-t): 706 ng·h/mL
[11]
  EC50: 0.05 nM

## COC(=O)N[C@H](C(=O)N1CCC[C@H]1c1ncc(-c2ccc([C@H]3CC[C@](C)(c4cnc([C@@H]5CCCN5C(=O)[C@@H](NC(=O)OC)C(C)C)[nH]4)CC3)cc2)[nH]1)C(C)C
[4]
  EC50: > 100 nM
[11]
  EC50: 1.3 nM

## COC(=O)N[C@H](C(=O)N1CCC[C@H]1c1ncc(-c2cc(F)c(N3CCC(c4cnc([C@@H]5CCCCN5C(=O)[C@@H](NC(=O)OC)C(C)C)[nH]4)CC3)c(F)c2)[nH]1)C(C)C
[4]
  EC50: 34 nM
[11]
  EC50: 0.09 nM

## COC(=O)N[C@@H](C(=O)N1CCC[C@H]1c1ncc(-c2cc(F)c(N3CCC(c4cnc([C@@H]5COCCN5C(=O)[C@H](NC(=O)OC)c5ccccc5)[nH]4)CC3)c(F)c2)[nH]1)c1ccccc1
[4]
  EC50: 38 nM
[11]
  EC50: 0.05 nM

## COC(=O)N[C@H](C(=O)N(C)[C@@H](C)c1ncc(C2CCN(c3c(F)cc(-c4cnc([C@@H]5CCCN5C(=O)[C@@H](NC(=O)OC)C(C)C)[nH]4)cc3F)CC2)[nH]1)C(C)C
[4]
  EC50: > 100 nM
[11]
  EC50: 0.54 nM

## COC(=O)N[C@H](C(=O)N[C@@H](C)c1ncc(C2CCN(c3c(F)cc(-c4cnc([C@@H]5CCCN5C(=O)[C@@H](NC(=O)OC)C(C)C)[nH]4)cc3F)CC2)[nH]1)C(C)C
[4]
  EC50: 68 nM
[11]
  EC50: 0.14 nM

## COC(=O)N[C@H](C(=O)N[C@H](c1ncc(C2CCN(c3c(F)cc(-c4cnc([C@@H]5CCCN5C(=O)[C@@H](NC(=O)OC)C(C)C)[nH]4)cc3F)CC2)[nH]1)C(C)C)C(C)C
[4]
  EC50: 25 nM
[11]
  EC50: 0.07 nM

## COC(=O)N[C@H](C(=O)N[C@@H](C)c1ncc(-c2cc(F)c(N3CCC(c4cnc([C@@H]5CCCN5C(=O)[C@@H](NC(=O)OC)C(C)C)[nH]4)CC3)c(F)c2)[nH]1)C(C)C
[4]
  EC50: 39 nM
[11]
  EC50: 0.27 nM

## COC(=O)N[C@@H](C(=O)N1CCOC[C@H]1c1ncc(-c2cc(F)c(N3CCC(c4cnc([C@@H]5CCCN5C(=O)[C@H](NC(=O)OC)c5ccccc5)[nH]4)CC3)c(F)c2)[nH]1)c1ccccc1
[4]
  EC50: 73 nM
[11]
  EC50: 0.04 nM

## COC(=O)N[C@@H](C)C(=O)N1CCC[C@H]1c1ncc(-c2ccc([C@H]3CC[C@H](c4cnc([C@@H]5CCCN5C(=O)[C@H](C)NC(=O)OC)[nH]4)CC3)cc2)[nH]1
[4]
  EC50: 7.2 nM
[11]
  EC50: 0.33 nM

## COC(=O)N[C@H](C(=O)N1CCC[C@H]1c1ncc(-c2ccc([C@H]3CC[C@H](c4cnc([C@@H]5CCCN5C(=O)[C@@H](NC(=O)OC)C5CC5)[nH]4)CC3)cc2)[nH]1)C1CC1
[4]
  EC50: 4.5 nM
[11]
  EC50: 0.86 nM

## CC[C@H](C)[C@H](NC(=O)OC)C(=O)N1CCC[C@H]1c1ncc(-c2ccc([C@H]3CC[C@H](c4cnc([C@@H]5CCCN5C(=O)[C@@H](NC(=O)OC)[C@@H](C)CC)[nH]4)CC3)cc2)[nH]1
[4]
  EC50: 4.1 nM
[11]
  EC50: 0.05 nM

## COC(=O)N[C@H](C(=O)N1CCC[C@H]1c1ncc(-c2ccc([C@H]3CC[C@H](c4cnc([C@@H]5CCCN5C(=O)[C@@H](NC(=O)OC)[C@@H](C)OC)[nH]4)CC3)cc2)[nH]1)[C@@H](C)OC
[4]
  EC50: 1.4 nM
[11]
  EC50: 0.19 nM

## COC(=O)N[C@H](C(=O)N1CCC[C@H]1c1ncc(-c2ccc([C@H]3CC[C@H](c4cnc([C@@H]5CCCN5C(=O)[C@@H](c5ccccc5)N(C)C)[nH]4)CC3)cc2)[nH]1)C(C)C
[4]
  EC50: 1.7 nM
[11]
  EC50: 0.14 nM

## COC(=O)N[C@@H](C(=O)N1CCC[C@H]1c1ncc(-c2ccc([C@H]3CC[C@H](c4cnc([C@@H]5CCCN5C(=O)[C@@H](c5ccccc5)N(C)C)[nH]4)CC3)cc2)[nH]1)c1ccccc1
[2]
  AUC(0-t): 255 ng·h/mL
[4]
  EC50: 1.4 nM
[5]
  Tmax: 1.67 h
[9]
  Cmax: 54.1 ng/mL
[11]
  EC50: 0.11 nM

## COC(=O)N[C@H](C(=O)N1CCC[C@H]1c1ncc(-c2ccc([C@H]3CC[C@H](c4cnc([C@@H]5CCCN5C(=O)[C@H](C(C)C)N(C)C)[nH]4)CC3)cc2)[nH]1)C(C)C
[4]
  EC50: > 100 nM
[11]
  EC50: 0.7 nM

## COC(=O)N[C@H](C(=O)N1CCC[C@H]1c1ncc(-c2ccc([C@H]3CC[C@H](c4cnc([C@@H]5CCCN5C(=O)[C@H](NC(=O)OC)c5ccccc5)[nH]4)CC3)cc2)[nH]1)C(C)C
[4]
  EC50: 2.6 nM
[11]
  EC50: 0.05 nM

## COC(=O)N[C@H](C(=O)N1CCC[C@H]1c1ncc([C@H]2CC[C@H](c3ccc(-c4cnc([C@@H]5CCCN5C(=O)[C@H](NC(=O)OC)c5ccccc5)[nH]4)cc3)CC2)[nH]1)C(C)C
[4]
  EC50: 4.4 nM
[11]
  EC50: 0.088 nM

## COC(=O)N[C@H](C(=O)N1CCC[C@H]1c1ncc(-c2ccc(-c3ccc(-c4cnc([C@@H]5CCCN5C(=O)[C@@H](NC(=O)OC)C(C)C)[nH]4)cc3)cc2)[nH]1)C(C)C [DACLATASVIR]
[4]
  EC50: 0.14 nM
[13]
  solubility: 6.8 µg/mL (≈ 9.2 µM)
[11]
  EC50: 0.023 nM
